Patent US9868692B2, “Compounds and compositions for intracellular delivery of therapeutic agents” (MODERNATX, Inc., priority 2015, dated 2018)
Blank lines part the entries; values can stand above or below the compound they belong to.

Key:
[1] = Residual lipid level in liver of rats (UPLC-MS quantification); format: in vivo; conditions: rat; for % Lipid Remaining in liver, 48 h 2 mpk: assuming 300 g rat and 15 g liver; for concentration at 48 h: intravenous
Method: (§1) To pre-weighed tissues, Milli-Q water was added (900 μL water per 100 mg tissue). Tissues were homogenized using an Omni probe homogenizer until uniform. 50 μL of samples and matrix calibration standards were aliquoted into a 96-well plate. 50 μL of blank matrix for matrix blanks and control blanks were aliquoted. 400 μL IS spiking solution were manually added to all samples except matrix blanks. 400 μL of 50:50 ACN:IPA were manually added to matrix blanks. The plate was covered and the samples vortexed and centrifuged for 5 minutes at >3000 rpm. 200 μL of the samples were transferred into a clean 96-well plate for analysis. […] Detection was based on electrospray ionization (ESI) in positive mode using a Sciex API5500 Mass Spectrometer.
(§2) The expression of hEPO in rats intravenously administered a nanoparticle composition at a dose of 0.2 mpk or 2.0 mpk was measured at 6 hours. […] Liver and spleen levels represent the average values calculated for 3 rats in each group.
(§3) The expression of hEPO and lipid levels in the liver and spleen in rats intravenously administered a nanoparticle composition at a dose of 0.2 mpk was measured at various timepoints. […] Lipids were formulated according to the standard MC3 formulation described above.

[2] = Residual lipid level in spleen of rats (UPLC-MS quantification); format: in vivo; conditions: rat
Method: as §1, §2, §3

[3] = Particle size, polydispersity index (and zeta potential) of nanoparticle compositions, Zetasizer Nano ZS; format: physicochemical; conditions: Table 1A formulations
Description: Nanoparticle compositions may be characterized by a variety of methods. For example, microscopy (e.g., transmission electron microscopy or scanning electron microscopy) may be used to examine the morphology and size distribution of a nanoparticle composition. Dynamic light scattering or potentiometry (e.g., potentiometric titrations) may be used to measure zeta potentials. Dynamic light scattering may also be utilized to determine particle sizes. Instruments such as the Zetasizer Nano ZS (Malvern Instruments Ltd, Malvern, Worcestershire, UK) may also be used to measure multiple characteristics of a nanoparticle composition, such as particle size, polydispersity index, and zeta potential.
A Zetasizer Nano ZS (Malvern Instruments Ltd, Malvern, Worcestershire, UK) can be used to determine the particle size, the polydispersity index (PDI) and the zeta potential of the nanoparticle compositions in 1×PBS in determining particle size and 15 mM PBS in determining zeta potential.

[4] = Encapsulation efficiency of RNA, QUANT-IT RIBOGREEN RNA assay; format: physicochemical; conditions: Table 1A formulations
Description: The efficiency of encapsulation of a therapeutic and/or prophylactic describes the amount of therapeutic and/or prophylactic that is encapsulated or otherwise associated with a nanoparticle composition after preparation, relative to the initial amount provided. The encapsulation efficiency is desirably high (e.g., close to 100%). The encapsulation efficiency may be measured, for example, by comparing the amount of therapeutic and/or prophylactic in a solution containing the nanoparticle composition before and after breaking up the nanoparticle composition with one or more organic solvents or detergents. Fluorescence may be used to measure the amount of free therapeutic and/or prophylactic (e.g., RNA) in a solution. For the nanoparticle compositions described herein, the encapsulation efficiency of a therapeutic and/or prophylactic may be at least 50%, for example 50%, 55%, 60%, 65%, 70%, 75%, 80%, 85%, 90%, 91%, 92%, 93%, 94%, 95%, 96%, 97%, 98%, 99%, or 100%. In some embodiments, the encapsulation efficiency may be at least 80%. In certain embodiments, the encapsulation efficiency may be at least 90%.
For nanoparticle compositions including an RNA, a QUANT-IT™ RIBOGREEN® RNA assay (Invitrogen Corporation Carlsbad, Calif.) can be used to evaluate the encapsulation of an RNA by the nanoparticle composition. The samples are diluted to a concentration of approximately 5 μg/mL in a TE buffer solution (10 mM Tris-HCl, 1 mM EDTA, pH 7.5). 50 μL of the diluted samples are transferred to a polystyrene 96 well plate and either 50 μL of TE buffer or 50 μL of a 2% Triton X-100 solution is added to the wells. The plate is incubated at a temperature of 37° C. for 15 minutes. The RIBOGREEN® reagent is diluted 1:100 in TE buffer, and 100 μL of this solution is added to each well. The fluorescence intensity can be measured using a fluorescence plate reader (Wallac Victor 1420 Multilablel Counter; Perkin Elmer, Waltham, Mass.) at an excitation wavelength of, for example, about 480 nm and an emission wavelength of, for example, about 520 nm. The fluorescence values of the reagent blank are subtracted from that of each of the samples and the percentage of free RNA is determined by dividing the fluorescence intensity of the intact sample (without addition of Triton X-100) by the fluorescence value of the disrupted sample (caused by the addition of Triton X-100).

[5] = liver, 0.2 mg/kg, 0.2 mpk, 48 h, average of 3 rats, read-out: Liver level
[6] = liver, 2 mg/kg, 2 mpk, 48 h, average of 3 rats, read-out: Liver level
[7] = intravenous, 0.2 mg/kg, 0.2 mpk, 48 h, average of 3 rats, read-out: Spleen level
[8] = intravenous, 2 mg/kg, 2 mpk, 48 h, average of 3 rats, read-out: Spleen level
[9] = liver, iv, 0.2 mg/kg, 0.2 mpk, 48 hours, read-out: Liver level
[10] = liver, iv, 2 mg/kg, 2 mpk, 48 hours, read-out: Liver level
[11] = iv, 0.2 mg/kg, 0.2 mpk, 48 hours, read-out: Spleen level
[12] = iv, 2 mg/kg, 2 mpk, 48 hours, read-out: Spleen level

Compound: CCCCCCCCCOC(=O)CCCCCCCN(CCO)CCCCCCCOC(=O)C(CCCCCCCC)CCCCCCCC [Compound 30, 7-((2-Hydroxyethyl)(8-(nonyloxy)-8-oxooctyl)amino)heptyl 2-octyldecanoate]
% Lipid Remaining in liver, 48 h 2 mpk ([1]; 2 mpk, 48 h): <0.01%

Compound: CCCCCCCCC(CCC)OC(=O)CCCCCCCN(CCO)CCCCCCCC(=O)OC(CCCCCCCC)CCCCCCCC (centres unmarked) [Compound 50, dodecan-4-yl 8-((8-(heptadecan-9-yloxy)-8-oxooctyl)(2-hydroxyethyl)amino)octanoate]
concentration at 48 h [1, 9]: 5820 ng/g
concentration at 48 h [1, 10]: 79200 ng/g
concentration at 48 h [2, 11]: 0.22
concentration at 48 h [2, 12]: 0.17

Compound: CCCC/C=C\CCC(CC/C=C\CCCC)OC(=O)CCCCCCCN(CCO)CCCCCC(=O)OCCCCCCCCCCC [Compound 61, (5Z,12Z)-heptadeca-5,12-dien-9-yl 8-((2-hydroxyethyl)(6-oxo-6-(undecyloxy)hexyl)amino)octanoate]
PDI [3]: 0.11
EE (%) [4]: 97.2%

Compound: CCCCCCCCCOC(=O)CCCCCCCN(CCCCCCCC(=O)OC(CCCCCCCC)CCCCCCCC)CCCNC(=O)NC [Compound 112, Heptadecan-9-yl 8-((3-(3-methylureido)propyl)(8-(nonyloxy)-8-oxooctyl)amino)octanoate]
PDI [3]: 0.12

Compound: CCCCCCCCCOC(=O)CCCCCCCN(CCO)CCCCCCC(=O)OCC(CCCCCCCC)CCCCCCCC [Compound 143, Nonyl 8-((2-hydroxyethyl)(7-((2-octyldecyl)oxy)-7-oxoheptyl)amino)octanoate]
PDI [3]: 0.19

Compound: CCCCCCCCCOC(=O)CCCCCCCN(CCCCCCCC(=O)OC(CCCCCCCC)CCCCCCCC)CCCN/C(=N/C#N)N(C)C [Compound 168, Heptadecan-9-yl (Z)-8-((3-(2-cyano-3,3-dimethylguanidino)propyl)(8-(nonyloxy)-8-oxooctyl)amino)octanoate]
PDI [3]: 0.1

Compound: CCCCCCCCCOC(=O)CCCCCCCN(CCCCCCCC(=O)OC(CCCCCCCC)CCCCCCCC)CCCOC(=O)NC [Compound 175, Heptadecan-9-yl 8-((3-((methylcarbamoyl)oxy)propyl)(8-(nonyloxy)-8-oxooctyl)amino)octanoate]
PDI [3]: 0.2

The remaining lines, values ahead:

% Lipid Remaining in liver, 48 h 2 mpk ([1]; 2 mpk, 48 h): 14%
Compound: CCCCCCCCCN(CCO)CCCCCCCC(=O)OC(CCCCCCCC)CCCCCCCC [Compound 3, Heptadecan-9-yl 8-((2-hydroxyethyl)(nonyl)amino)octanoate]

% Lipid Remaining in liver, 48 h 2 mpk ([1]; 2 mpk, 48 h): 0.016%
Compound: CCCCCC/C=C\COC(=O)CCCCCCCN(CCO)CCCCCCCC(=O)OC(CCCCCCCC)CCCCCCCC [Compound 24, Heptadecan-9-yl (Z)-8_((2-hydroxyethyl)(8-(non-2-en-1-yloxy)-8-oxooctyl)amino)octanoate]

concentration at 0.25 h ([1]; liver, iv, 0.2 mg/kg, 0.2 mpk, 0.25 h): 12000 ng/g
concentration at 0.5 h ([1]; liver, iv, 0.2 mg/kg, 0.2 mpk, 0.5 h): 16400 ng/g
concentration at 1 h ([1]; liver, iv, 0.2 mg/kg, 0.2 mpk, 1 h): 17900 ng/g
concentration at 2 h ([1]; liver, iv, 0.2 mg/kg, 0.2 mpk, 2 h): 11700 ng/g
concentration at 4 h ([1]; liver, iv, 0.2 mg/kg, 0.2 mpk, 4 h): 6690 ng/g
concentration at 8 h ([1]; liver, iv, 0.2 mg/kg, 0.2 mpk, 8 h): 2360 ng/g
concentration at 24 h ([1]; liver, iv, 0.2 mg/kg, 0.2 mpk, 24 h): 199 ng/g
concentration at 48 h ([1]; liver, iv, 0.2 mg/kg, 0.2 mpk, 48 h, read-out: Lipid level in liver): 12000 ng/g
concentration at 0.25 h ([2]; iv, 0.2 mg/kg, 0.2 mpk, 0.25 h): 4040 ng/g
concentration at 0.5 h ([2]; iv, 0.2 mg/kg, 0.2 mpk, 0.5 h): 6880 ng/g
concentration at 1 h ([2]; iv, 0.2 mg/kg, 0.2 mpk, 1 h): 8590 ng/g
concentration at 2 h ([2]; iv, 0.2 mg/kg, 0.2 mpk, 2 h): 13700 ng/g
concentration at 4 h ([2]; iv, 0.2 mg/kg, 0.2 mpk, 4 h): 20400 ng/g
concentration at 8 h ([2]; iv, 0.2 mg/kg, 0.2 mpk, 8 h): 10800 ng/g
concentration at 24 h ([2]; iv, 0.2 mg/kg, 0.2 mpk, 24 h): 2020 ng/g
concentration at 48 h ([2]; iv, 0.2 mg/kg, 0.2 mpk, 48 h, read-out: Lipid level in spleen): 1550 ng/g
Compound: CCCCCCCCCCCOC(=O)CCCCCN(CCO)CCCCCCCC(=O)OC(CCCCCCCC)CCCCCCCC [Compound 25, Heptadecan-9-yl 8-((2-hydroxyethyl)(6-oxo-6-(undecyloxy)hexyl)amino)octanoate]

% Lipid Remaining in liver, 48 h 2 mpk ([1]; 2 mpk, 48 h): 20%
Compound: CCCCCCCCCOC(=O)CCCN(CCO)CCCCCCCC(=O)OC(CCCCCCCC)CCCCCCCC [Compound 26, Heptadecan-9-yl 8-((2-hydroxyethyl)(4-(nonyloxy)-4-oxobutyl)amino) octanoate]

concentration at 48 h [1, 5]: 49.6 ng/g
concentration at 48 h [1, 6]: 665 ng/g
concentration at 48 h [2, 7]: 268 ng/g
concentration at 48 h [2, 8]: 551 ng/g
Compound: CCCCCCCCC(CCCCCCCC)OC(=O)CCCCCCCN(CCO)CCCCCCCC(=O)OCC1CC1CCCCCC (centres unmarked) [Compound 28, Heptadecan-9-yl 8-((8-((2-hexylcyclopropyl)methoxy)-8-oxooctyl)(2-hydroxyethyl)amino)octanoate]

concentration at 48 h [1, 6]: 103 ng/g
concentration at 48 h [2, 7]: 115 ng/g
concentration at 48 h [2, 8]: 287 ng/g
Compound: CCCCCCCCCOC(=O)CCCCCCCN(CCO)CCCCCCCC(=O)OC(CCCCC)CCCCCCCC (centres unmarked) [Compound 33, nonyl 8-((2-hydroxyethyl)(8-oxo-8-(tetradecan-6-yloxy)octyl)amino) octanoate]

concentration at 48 h [1, 9]: 5450 ng/g
concentration at 48 h [1, 10]: 34500 ng/g
concentration at 48 h [2, 11]: 0.31
concentration at 48 h [2, 12]: 0.21
Compound: CCCCCCCCC(C)OC(=O)CCCCCCCN(CCO)CCCCCCCC(=O)OC(CCCCCCCC)CCCCCCCC (centres unmarked) [Compound 48, decan-2-yl 8-((8-(heptadecan-9-yloxy)-8-oxooctyl)(2-hydroxyethyl)amino)octanoate]

concentration at 48 h [1, 5]: 4810 ng/g
concentration at 48 h [1, 6]: 47000 ng/g
concentration at 48 h [2, 7]: 1180 ng/g
concentration at 48 h [2, 8]: 201000 ng/g
Compound: CCCCCCCCC(CCCCCCCC)OC(=O)CCCCCCCN(CCO)CCCC(=O)OCCCCCC [Compound 53, heptadecan-9-yl 8-((4-(hexyloxy)-4-oxobutyl)(2-hydroxyethyl)amino) octanoate]

concentration at 48 h [1, 5]: 6070 ng/g
concentration at 48 h [1, 6]: 56100 ng/g
concentration at 48 h [2, 7]: 6360 ng/g
concentration at 48 h [2, 8]: 49400 ng/g
Compound: CCCCCCCCC(CCCCCCCC)OC(=O)CCCCCCCN(CCO)CCCC(=O)OCCCCCCC [Compound 54, heptadecan-9-yl 8-((4-(heptyloxy)-4-oxobutyl)(2-hydroxyethyl)amino) octanoate]

PDI [3]: 0.11
Compound: CCCCCCCCC(CCCCCCCC)OC(=O)CCCCCCCN(CCO)CCCC(=O)OC(CCCCC)CCCCCCCC (centres unmarked) [Compound 71, Heptadecan-9-yl 8-((2-hydroxyethyl)(4-oxo-4-(tetradecan-6-yloxy)butyl)amino)octanoate]
